{"source": "patent US8409603B2", "about": "“Compositions and methods for tissue engineering, tissue regeneration and wound healing” (University of South Carolina, priority 2009, dated 2013)", "system": "lens epithelial cells", "test": "Toroid (ring) formation by cells added onto polymerized collagen gel", "format": "cell-based", "details": "addition to the culture fluid of 3-30 ng", "method": "FIG. 1 illustrates examples of toroids generated from EMT-primed lens epithelial cells; a-c) a control series of 3 toroids generated in regular media, d-f) a control series of 3 toroids generated in media containing a control peptide and g-h) a series of 3 toroids generated in media containing a an ACT1 peptide in combination with Tgfb1.\nIn a variation on this protocol, cells were added onto an already polymerized gel and the gel was detached after 24 hours of culture. Following a subsequent 24 hours it was noted that quite unlike what was observed when cells were pre-mixed into the gel, cells added post-polymerization always formed into uniform circular rings of repeatable diameter (FIG. 1b). […] Confocal microscopy of rhodamine-phalloidin and nuclear-DAPI stained gels indicated a two-phase structure with cells undergoing recruitment at the outer rim arranging in radial spoke-like arrays (FIG. 1e), whereas cells in on the inner rim organized into a contractile ring (FIG. 1f). […] This experiment was repeated with REC cells (Wada A M, Smith T K, Osler M E, Reese D E, Bader D M. Epicardial/Mesothelial cell line retains vasculogenic potential of embryonic epicardium. Circ Res. 2003 Mar. 21; 92(5):525-31. Epub 2003 Feb. 6, incorporated by reference herein), a rat […] with similar effect. […]"}
{"substance": "TGF-b", "values": [{"measurement": "ring size of toroid", "result": "predictably altered"}]}
